Laboratory results as given in patent US20140142180A1, “METHODS OF TREATING TUMORS HAVING ELEVATED MCT1 EXPRESSION” (Whitehead Institute for Biomedical Research, priority 2012, published 2014).

Key:
Type in all cases: cell-based, human
[1] = test system: SK-BR-3 cells; test: Cell survival assay, SK-BR-3
Experimental: (§1) Cell lines (5,000-20,000) were seeded in 96-well plates and treated with indicated amounts of 3-BrPA. After 3 days of treatment, CellTiter-Glo (Promega) and/or CyQuant (Invitrogen) were used to measure survival percentage for each concentration compared to untreated cells. FACS analysis with Annexin V and 7AAD staining was performed according to manufacturer's manual (BD Pharmingen).
(§2) 15 cell lines (BT-474, BT-549, CAK1-1, CAL-51, HCC-70, HS578T, JURKAT, MDA-MB-157, MDA-MB-231, MDA-MB-453, MDA-MB-468, PC-3, SK-BR-3, T47D, ZR-75-1) were treated with 3-BrPA (0-300 μM). After 3 days, cell viability was quantified via CellTiter-Glo assay and an IC50 from the resulting dose-response curve was interpolated using a nonlinear regression model. Transcriptome-wide normalized mRNA levels from gene expression profiling experiments performed on the Affymetrix Human Genome U133 Plus 2.0 chip were obtained from the CCLE for all 15 cell lines. The mRNA expression pattern across all 15 samples for each of the genes was then correlated with the IC50 values. Similar correlation analysis was performed using OCR/ECAR values for each cell line.

[2] = test system: breast cancer lines; test: 3-BrPA sensitivity versus MCT1 protein level in breast cancer lines
Experimental: as §1
Briefly, cells were rinsed twice in ice-cold PBS and harvested in a standard lysis buffer containing 50 mM Hepes, pH 7.4, 40 mM NaCl, 2 mM EDTA, 1.5 mM orthovanadate, 50 mM NaF, 10 mM pyrophosphate, 10 mM glycerophosphate, protease inhibitors (Roche) and 1% Triton-X-100. Proteins from total lysates were resolved by 8-12% SDS-PAGE, and analyzed by immunoblotting as described using anti-MCT1 (Millipore; Ab3540), anti-RPS6 and anti-raptor antibodies (1:1000)^50. For quantitation, ImageJ software was used and the signals were normalized using an equal loading control (RPS6/Raptor). Immunohistochemistry was performed on formalin-fixed paraffin embedded sections using a boiling Dako antigen retrieval method (Dako). A 1:500 dilution of the anti-MCT1 antibody was used for staining.

[3] = test system: T47D cells; test: Cell survival assay, T47D; conditions: low MCT1 level
Experimental: as §1, §2

O=C(O)C(=O)CBr [3-BrPA, 3-bromopyruvic acid]
sensitivity to 3-BrPA ([1]; SK-BR-3, low MCT1 level): resistant
sensitivity to 3-BrPA with stable expression of MCT1 ([1]; SK-BR-3 stably expressing MCT1 cDNA): sufficient to sensitize
sensitivity to 3-BrPA ([2]; breast cancer lines with high MCT1 protein levels): sensitive
sensitivity to 3-BrPA ([2]; breast cancer lines with low to no MCT1): resistant to even high concentrations
sensitivity to 3-BrPA [3]: resistant
